Measurements reported in paper PMC7730235, “Discovery of a Novel Class of Covalent Dual Inhibitors Targeting the Protein Kinases BMX and BTK” (International Journal of Molecular Sciences, 2020).

Key:
[1] = target: T1, Full length BTK (C-terminal NanoLuc fusion) (Homo sapiens, UniProt Q06187); assay: Cellular NanoBRET target engagement assay in HEK293T cells; format: cell-based; settings: 0.5 µM Tracer K5, 2 h incubation
T1 construct: Full length BMX and BTK was cloned into pFC32K; expressed in transfected cells; host or cells: HEK293T
T1 sequence (Q06187 whole entry, the tested form may be a part): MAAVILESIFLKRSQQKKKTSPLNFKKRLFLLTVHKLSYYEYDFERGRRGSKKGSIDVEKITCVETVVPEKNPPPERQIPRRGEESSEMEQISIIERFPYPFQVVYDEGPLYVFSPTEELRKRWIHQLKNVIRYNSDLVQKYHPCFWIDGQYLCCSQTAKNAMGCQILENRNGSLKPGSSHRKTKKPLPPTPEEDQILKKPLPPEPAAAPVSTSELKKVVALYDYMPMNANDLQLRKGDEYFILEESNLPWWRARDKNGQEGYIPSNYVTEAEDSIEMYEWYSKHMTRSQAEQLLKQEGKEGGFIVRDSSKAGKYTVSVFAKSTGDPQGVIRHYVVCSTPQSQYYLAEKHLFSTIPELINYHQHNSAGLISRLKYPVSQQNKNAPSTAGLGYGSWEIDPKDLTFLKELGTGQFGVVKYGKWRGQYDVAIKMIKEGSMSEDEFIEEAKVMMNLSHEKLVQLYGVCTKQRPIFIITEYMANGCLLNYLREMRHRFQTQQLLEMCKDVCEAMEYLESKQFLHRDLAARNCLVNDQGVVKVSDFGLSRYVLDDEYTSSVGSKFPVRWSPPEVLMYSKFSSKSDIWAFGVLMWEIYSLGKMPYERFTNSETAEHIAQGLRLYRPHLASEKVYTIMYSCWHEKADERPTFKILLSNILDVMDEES
Method: Full length BMX and BTK was cloned into pFC32K (Promega, Madison, WI, USA) for expression of a C-terminal NanoLuc fusion. The plasmids were transfected into HEK293T cells cultured in DMEM (Gibco, Waltham, MA, USA) supplemented with 10% fetal bovine serum (Gibco, Waltham, MA, USA) and Penicillin/Streptamycin (Gibco, Waltham, MA, USA). NanoBRET assays were performed using the protocol published previously. Briefly, after transfection and 20 h incubation cells were harvested and subsequently resuspended in OptiMEM (Gibco, Waltham, MA, USA). Cells were aliquoted onto […] (Greiner, Kremsmünster, Austria), and inhibitors as well as 0.5 µM Tracer K4 (Promega) for BMX or 0.5 µM Tracer K5 (Promega, Madison, WI, USA) for BTK were added using an ECHO acoustic dispenser. The plates were incubated at 37 °C with 5% CO2 for 2 h prior to the addition of both NanoBRET NanoGlo substrate (Promega, Madison, WI, USA) and extracellular NanoLuc inhibitor. BRET luminescence (450 nm for donor emission and 610 nm for BRET signal) was measured using PHERAstar FSX plate reader (BMG Labtech, Ortenberg, Germany). Milli-BRET units (mBU) were calculated as a ratio between BRET signal and the overall measured luminescence. A dose–response fitting was applied and IC50 values were calculated using the Prism software. […] Experiments were performed as tripicates and repeated at least three times.

HER2 = target: T2, HER2 (Homo sapiens, UniProt P04626); assay: Radiometric kinase assay (Reaction Biology HotSpot); format: biochemical; settings: [ATP] = 10 μM; for remaining activity at 0.2 µM: 200 nM compound, duplicate mean, read-out: Residual Activity @ 200 nM, HER2
T2 construct: purchased Reaction Biology Corporation
T2 sequence (P04626 23-1255): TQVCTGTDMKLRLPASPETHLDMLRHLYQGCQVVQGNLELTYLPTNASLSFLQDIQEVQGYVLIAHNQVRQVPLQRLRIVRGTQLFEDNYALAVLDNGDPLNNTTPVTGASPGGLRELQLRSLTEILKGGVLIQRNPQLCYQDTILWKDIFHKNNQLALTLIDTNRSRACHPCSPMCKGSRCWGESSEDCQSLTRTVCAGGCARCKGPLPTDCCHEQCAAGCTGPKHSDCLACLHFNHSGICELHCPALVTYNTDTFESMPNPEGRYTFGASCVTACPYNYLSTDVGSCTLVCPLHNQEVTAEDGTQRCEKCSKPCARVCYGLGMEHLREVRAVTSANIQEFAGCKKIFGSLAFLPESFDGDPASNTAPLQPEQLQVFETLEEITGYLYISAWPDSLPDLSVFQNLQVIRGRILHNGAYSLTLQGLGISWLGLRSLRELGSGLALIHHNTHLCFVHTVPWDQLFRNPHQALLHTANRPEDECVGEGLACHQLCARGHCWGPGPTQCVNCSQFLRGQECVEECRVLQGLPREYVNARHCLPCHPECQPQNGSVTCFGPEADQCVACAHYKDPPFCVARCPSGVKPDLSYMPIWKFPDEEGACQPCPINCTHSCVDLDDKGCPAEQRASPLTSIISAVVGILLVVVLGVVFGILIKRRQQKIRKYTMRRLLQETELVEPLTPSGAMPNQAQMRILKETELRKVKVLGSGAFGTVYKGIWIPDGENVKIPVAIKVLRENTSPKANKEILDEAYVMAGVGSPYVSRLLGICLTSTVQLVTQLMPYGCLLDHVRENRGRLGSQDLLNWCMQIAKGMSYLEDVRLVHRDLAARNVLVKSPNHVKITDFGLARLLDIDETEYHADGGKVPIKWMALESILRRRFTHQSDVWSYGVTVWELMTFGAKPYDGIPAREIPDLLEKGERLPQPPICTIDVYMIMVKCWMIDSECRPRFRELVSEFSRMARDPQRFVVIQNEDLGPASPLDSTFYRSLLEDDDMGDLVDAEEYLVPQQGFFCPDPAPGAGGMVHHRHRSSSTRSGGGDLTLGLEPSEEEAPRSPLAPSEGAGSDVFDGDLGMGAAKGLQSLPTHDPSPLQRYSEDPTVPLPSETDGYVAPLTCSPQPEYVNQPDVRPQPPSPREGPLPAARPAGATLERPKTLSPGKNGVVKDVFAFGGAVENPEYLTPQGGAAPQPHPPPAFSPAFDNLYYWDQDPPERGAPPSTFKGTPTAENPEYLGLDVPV
Method: (§1) If not mentioned differently, in vitro profiling of compounds was performed at Reaction Biology Corporation using the HotSpot™ assay platform.

TEC = target: T3, TEC (Homo sapiens, UniProt P42680); assay: as above; format: biochemical; settings: [ATP] = 10 μM; for remaining activity at 0.2 µM: 200 nM compound, duplicate mean, read-out: Residual Activity @ 200 nM, TEC
T3 construct: purchased Reaction Biology Corporation
T3 sequence (P42680 1-631): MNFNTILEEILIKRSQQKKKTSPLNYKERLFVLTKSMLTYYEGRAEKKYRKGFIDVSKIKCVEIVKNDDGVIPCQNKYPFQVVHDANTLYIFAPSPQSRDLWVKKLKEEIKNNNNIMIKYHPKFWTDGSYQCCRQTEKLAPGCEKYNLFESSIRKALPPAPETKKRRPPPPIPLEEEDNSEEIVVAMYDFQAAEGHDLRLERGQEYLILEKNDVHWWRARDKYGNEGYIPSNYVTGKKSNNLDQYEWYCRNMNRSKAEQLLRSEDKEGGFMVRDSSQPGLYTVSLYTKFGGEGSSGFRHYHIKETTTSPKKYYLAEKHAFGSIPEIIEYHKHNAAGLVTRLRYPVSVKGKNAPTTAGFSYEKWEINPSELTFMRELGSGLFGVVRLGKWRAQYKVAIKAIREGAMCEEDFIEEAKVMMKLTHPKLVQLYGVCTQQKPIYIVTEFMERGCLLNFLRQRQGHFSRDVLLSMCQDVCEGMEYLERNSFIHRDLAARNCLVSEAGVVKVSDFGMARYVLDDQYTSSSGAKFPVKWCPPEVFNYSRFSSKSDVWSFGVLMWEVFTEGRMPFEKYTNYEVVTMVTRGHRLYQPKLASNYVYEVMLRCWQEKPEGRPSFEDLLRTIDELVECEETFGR
Method: as §1

EGFR = target: T4, EGFR (Homo sapiens, UniProt P00533); assay: as above; format: biochemical; settings: [ATP] = 10 μM; for remaining activity at 0.2 µM: 200 nM compound, duplicate mean, read-out: Residual Activity @ 200 nM, EGFR; for IC50: radiometric HotSpot, five-dose singlicate
T4 construct: purchased Reaction Biology Corporation
T4 sequence (P00533 25-1210): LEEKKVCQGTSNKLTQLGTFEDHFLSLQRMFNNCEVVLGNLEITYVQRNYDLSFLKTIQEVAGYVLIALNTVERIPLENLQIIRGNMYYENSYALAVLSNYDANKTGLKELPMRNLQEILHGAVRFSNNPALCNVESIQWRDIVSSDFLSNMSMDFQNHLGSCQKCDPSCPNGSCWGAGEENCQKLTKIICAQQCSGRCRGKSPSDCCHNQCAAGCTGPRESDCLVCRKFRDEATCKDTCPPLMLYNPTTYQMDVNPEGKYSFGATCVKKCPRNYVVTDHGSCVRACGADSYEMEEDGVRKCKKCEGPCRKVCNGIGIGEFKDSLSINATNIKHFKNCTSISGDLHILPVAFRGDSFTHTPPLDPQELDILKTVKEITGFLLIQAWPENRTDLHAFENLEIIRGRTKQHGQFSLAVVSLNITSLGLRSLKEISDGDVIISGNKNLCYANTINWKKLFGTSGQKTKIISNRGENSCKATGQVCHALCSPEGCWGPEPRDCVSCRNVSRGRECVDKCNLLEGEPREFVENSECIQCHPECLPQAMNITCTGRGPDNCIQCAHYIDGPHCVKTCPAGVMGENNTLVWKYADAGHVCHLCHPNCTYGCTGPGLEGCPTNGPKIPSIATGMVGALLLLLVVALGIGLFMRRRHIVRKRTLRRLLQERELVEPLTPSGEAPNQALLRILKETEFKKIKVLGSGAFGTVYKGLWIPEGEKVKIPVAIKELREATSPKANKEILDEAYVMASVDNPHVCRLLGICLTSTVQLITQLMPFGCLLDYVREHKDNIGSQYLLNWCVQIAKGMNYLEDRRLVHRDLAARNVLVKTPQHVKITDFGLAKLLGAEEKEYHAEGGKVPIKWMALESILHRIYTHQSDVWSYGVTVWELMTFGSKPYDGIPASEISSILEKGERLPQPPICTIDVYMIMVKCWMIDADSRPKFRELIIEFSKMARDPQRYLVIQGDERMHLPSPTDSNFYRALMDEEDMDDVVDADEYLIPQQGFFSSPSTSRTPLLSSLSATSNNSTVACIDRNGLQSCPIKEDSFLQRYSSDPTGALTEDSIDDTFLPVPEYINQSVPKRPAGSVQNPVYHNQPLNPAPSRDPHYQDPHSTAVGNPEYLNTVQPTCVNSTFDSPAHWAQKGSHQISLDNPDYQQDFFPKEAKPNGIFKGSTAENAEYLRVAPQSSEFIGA
Method: as §1

JAK3 = target: T5, JAK3 (Homo sapiens, UniProt P52333); assay: as above; format: biochemical; settings: [ATP] = 10 μM; for remaining activity at 0.2 µM: 200 nM compound, duplicate mean, read-out: Residual Activity @ 200 nM, JAK3; for IC50: radiometric HotSpot, five-dose singlicate
T5 construct: purchased Reaction Biology Corporation
T5 sequence (P52333 1-1124): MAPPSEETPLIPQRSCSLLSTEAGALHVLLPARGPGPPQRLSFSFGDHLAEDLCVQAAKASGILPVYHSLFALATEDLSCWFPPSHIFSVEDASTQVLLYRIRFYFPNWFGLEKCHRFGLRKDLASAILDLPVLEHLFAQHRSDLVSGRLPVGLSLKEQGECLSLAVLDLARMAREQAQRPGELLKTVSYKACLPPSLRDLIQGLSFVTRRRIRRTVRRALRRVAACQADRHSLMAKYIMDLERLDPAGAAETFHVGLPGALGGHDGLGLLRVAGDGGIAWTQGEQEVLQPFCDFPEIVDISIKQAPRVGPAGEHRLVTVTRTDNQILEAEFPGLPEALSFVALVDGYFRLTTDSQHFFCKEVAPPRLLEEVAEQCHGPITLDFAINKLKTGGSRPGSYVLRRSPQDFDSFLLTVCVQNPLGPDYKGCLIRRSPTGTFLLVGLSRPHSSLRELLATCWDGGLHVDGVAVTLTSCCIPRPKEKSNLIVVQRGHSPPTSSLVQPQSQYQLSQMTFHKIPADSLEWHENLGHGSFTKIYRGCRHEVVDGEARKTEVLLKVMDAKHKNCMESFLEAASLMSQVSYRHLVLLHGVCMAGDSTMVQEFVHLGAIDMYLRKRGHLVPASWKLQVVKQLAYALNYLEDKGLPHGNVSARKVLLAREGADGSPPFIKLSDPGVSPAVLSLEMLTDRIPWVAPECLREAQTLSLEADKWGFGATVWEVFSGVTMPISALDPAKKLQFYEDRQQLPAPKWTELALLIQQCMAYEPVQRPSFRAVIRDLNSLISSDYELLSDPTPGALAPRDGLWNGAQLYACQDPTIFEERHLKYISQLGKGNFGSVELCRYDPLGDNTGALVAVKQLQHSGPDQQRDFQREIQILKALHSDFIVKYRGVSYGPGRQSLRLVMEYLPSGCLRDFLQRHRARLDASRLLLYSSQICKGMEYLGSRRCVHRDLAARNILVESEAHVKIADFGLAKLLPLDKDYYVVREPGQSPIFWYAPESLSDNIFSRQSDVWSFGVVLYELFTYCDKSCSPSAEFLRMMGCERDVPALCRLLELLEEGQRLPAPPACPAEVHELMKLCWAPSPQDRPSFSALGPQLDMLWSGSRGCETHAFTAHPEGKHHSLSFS
Method: as §1

HER4 = target: T6, HER4 (Homo sapiens, UniProt Q15303); assay: as above; format: biochemical; settings: [ATP] = 10 μM; for remaining activity at 0.2 µM: 200 nM compound, duplicate mean, read-out: Residual Activity @ 200 nM, HER4
T6 construct: purchased Reaction Biology Corporation
T6 sequence (Q15303 26-1308): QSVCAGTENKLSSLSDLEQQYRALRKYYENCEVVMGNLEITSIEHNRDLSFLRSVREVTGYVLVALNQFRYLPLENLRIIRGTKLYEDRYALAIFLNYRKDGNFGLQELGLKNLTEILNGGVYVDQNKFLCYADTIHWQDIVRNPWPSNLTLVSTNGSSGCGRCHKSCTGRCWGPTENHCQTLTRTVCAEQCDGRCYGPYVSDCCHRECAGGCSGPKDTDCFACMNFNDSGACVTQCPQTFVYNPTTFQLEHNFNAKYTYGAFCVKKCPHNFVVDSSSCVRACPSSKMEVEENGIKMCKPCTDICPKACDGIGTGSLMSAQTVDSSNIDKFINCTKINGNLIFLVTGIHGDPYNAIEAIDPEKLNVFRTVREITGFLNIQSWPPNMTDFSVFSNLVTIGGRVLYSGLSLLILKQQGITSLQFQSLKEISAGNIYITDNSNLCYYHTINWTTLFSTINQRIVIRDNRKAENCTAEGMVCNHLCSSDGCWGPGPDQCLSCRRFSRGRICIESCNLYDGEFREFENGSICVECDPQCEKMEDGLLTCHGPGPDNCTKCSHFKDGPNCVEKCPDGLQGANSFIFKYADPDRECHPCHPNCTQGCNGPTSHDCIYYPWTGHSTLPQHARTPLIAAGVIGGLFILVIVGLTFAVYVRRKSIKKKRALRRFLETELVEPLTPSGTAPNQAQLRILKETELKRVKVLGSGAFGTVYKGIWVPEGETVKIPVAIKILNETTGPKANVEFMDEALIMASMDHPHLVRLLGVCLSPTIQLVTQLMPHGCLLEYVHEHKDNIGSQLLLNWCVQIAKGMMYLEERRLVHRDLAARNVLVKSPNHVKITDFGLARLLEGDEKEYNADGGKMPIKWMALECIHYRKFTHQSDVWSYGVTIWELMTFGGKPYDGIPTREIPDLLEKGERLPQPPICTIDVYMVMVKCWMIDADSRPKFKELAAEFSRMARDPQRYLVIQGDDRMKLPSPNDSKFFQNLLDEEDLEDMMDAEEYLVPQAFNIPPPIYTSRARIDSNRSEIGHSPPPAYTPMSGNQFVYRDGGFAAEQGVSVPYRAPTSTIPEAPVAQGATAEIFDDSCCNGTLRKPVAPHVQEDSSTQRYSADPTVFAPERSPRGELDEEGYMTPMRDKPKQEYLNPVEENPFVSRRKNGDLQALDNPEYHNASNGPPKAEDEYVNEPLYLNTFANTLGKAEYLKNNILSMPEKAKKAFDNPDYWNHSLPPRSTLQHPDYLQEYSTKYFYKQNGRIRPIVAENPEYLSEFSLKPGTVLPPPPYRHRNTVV
Method: as §1

[2] = radiometric HotSpot, five-dose singlicate

Row | SMILES | IC50 [1] | remaining activity at 0.2 µM (HER2) | remaining activity at 0.2 µM (TEC) | remaining activity at 0.2 µM (EGFR) | IC50 (EGFR) | remaining activity at 0.2 µM (JAK3) | IC50 (JAK3) | remaining activity at 0.2 µM (HER4) | IC50 (HER2; [2]) | IC50 (TEC; [2]) | IC50 (HER4; [2])
1 | C=CC(=O)Nc1cccc(-c2c[nH]c3ncccc23)c1 [Compound 9a, N-(3-(1H-pyrrolo[2,3-b]pyridin-3-yl)phenyl)acrylamide] | 15 ± 2 nM | 95% | 37.1% | > 100% | 5250 nM | 0.8% | 0.2 nM | 66.1% | – | – | –
2 | C=CC(=O)Nc1cccc(-c2c[nH]c3ncc(C(N)=O)cc23)c1 [Compound 10a, 3-(3-acrylamidophenyl)-1H-pyrrolo[2,3-b]pyridine-5-carboxamide] | 283 ± 24 nM | 97% | 42.1% | 95.5% | > 10000 nM | 0.5% | < 0.1 nM | 66.6% | – | – | –
3 | C=CC(=O)Nc1cccc(-c2c[nH]c3ncc(C(=O)NC4CCCC4)cc23)c1 [Compound 11a, 3-(3-acrylamidophenyl)-N-cyclopentyl-1H-pyrrolo[2,3-b]pyridine-5-carboxamide] | 2070 ± 32 nM | – | – | – | – | – | – | – | – | – | –
4 | CCC(=O)Nc1cccc(-c2c[nH]c3ncc(NC(=O)C4CCCC4)cc23)c1 [Compound 12b, N-(3-(3-propionamidophenyl)-1H-pyrrolo[2,3-b]pyridin-5-yl)cyclopentanecarboxamide] | 8210 ± 3460 nM | > 100% | 99.2% | > 100% | – | – | – | 95.4% | – | – | –
5 | C=CC(=O)Nc1cccc(-c2c[nH]c3ncc(NC(=O)c4cccs4)cc23)c1 [Compound 12c, N-(3-(3-acrylamidophenyl)-1H-pyrrolo[2,3-b]pyridin-5-yl)thiophene-2-carboxamide] | 9 ± 1 nM | 41.1% | 17.2% | 14.9% | 12 nM | > 100% | > 10000 nM | 4.7% | 118 nM | 13 nM | 8.5 nM
